Measurements published in the supplement of paper PMC11451515.

Test system: SEM cells
Assay: cell viability relative to DMSO control; higher = less cytotoxic
Conditions: 48 h
Method in brief: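 Viability is a per-plate percentage relative to DMSO wells, with cell-free wells as background. CellTiter-Glo One luminescence was read after 48 h at 37°C on 1536-well plates (5 μl) of NOMO1 or SEM (500 cells/well) or P12-Ichikawa (1000 cells/well) leukemia cells. The cells had been adapted for at least four passages in each medium and pin-dosed with library compounds in DMSO from 47 μM to 0.79 nM in 11 threefold steps.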

[1] = HPLM + 10% dialyzed FBS, 0.000781 µM
[2] = HPLM + 10% dialyzed FBS, 0.00234 µM
[3] = HPLM + 10% dialyzed FBS, 0.00702 µM
[4] = HPLM + 10% dialyzed FBS, 0.0211 µM
[5] = HPLM + 10% dialyzed FBS, 0.0632 µM
[6] = HPLM + 10% dialyzed FBS, 0.19 µM
[7] = HPLM + 10% dialyzed FBS, 0.569 µM
[8] = HPLM + 10% dialyzed FBS, 1.71 µM
[9] = HPLM + 10% dialyzed FBS, 5.12 µM
[10] = HPLM + 10% dialyzed FBS, 15.4 µM
[11] = HPLM + 10% dialyzed FBS, 46.1 µM
[12] = RPMI 5 mM glucose + 10% FBS, 0.000781 µM
[13] = RPMI 5 mM glucose + 10% FBS, 0.00234 µM
[14] = RPMI 5 mM glucose + 10% FBS, 0.00702 µM
[15] = RPMI 5 mM glucose + 10% FBS, 0.0211 µM
[16] = RPMI 5 mM glucose + 10% FBS, 0.0632 µM
[17] = RPMI 5 mM glucose + 10% FBS, 0.19 µM
[18] = RPMI 5 mM glucose + 10% FBS, 0.569 µM
[19] = RPMI 5 mM glucose + 10% FBS, 1.71 µM
[20] = RPMI 5 mM glucose + 10% FBS, 5.12 µM
[21] = RPMI 5 mM glucose + 10% FBS, 15.4 µM
[22] = RPMI 5 mM glucose + 10% FBS, 46.1 µM
[23] = RPMI 5 mM glucose + 10% dialyzed FBS, 0.000781 µM
[24] = RPMI 5 mM glucose + 10% dialyzed FBS, 0.00234 µM
[25] = RPMI 5 mM glucose + 10% dialyzed FBS, 0.00702 µM
[26] = RPMI 5 mM glucose + 10% dialyzed FBS, 0.0211 µM
[27] = RPMI 5 mM glucose + 10% dialyzed FBS, 0.0632 µM
[28] = RPMI 5 mM glucose + 10% dialyzed FBS, 0.19 µM
[29] = RPMI 5 mM glucose + 10% dialyzed FBS, 0.569 µM
[30] = RPMI 5 mM glucose + 10% dialyzed FBS, 1.71 µM
[31] = RPMI 5 mM glucose + 10% dialyzed FBS, 5.12 µM
[32] = RPMI 5 mM glucose + 10% dialyzed FBS, 15.4 µM
[33] = RPMI 5 mM glucose + 10% dialyzed FBS, 46.1 µM

Structure (SMILES)	cell viability [1]	cell viability [2]	cell viability [3]	cell viability [4]	cell viability [5]	cell viability [6]	cell viability [7]	cell viability [8]	cell viability [9]	cell viability [10]	cell viability [11]	cell viability [12]	cell viability [13]	cell viability [14]	cell viability [15]	cell viability [16]	cell viability [17]	cell viability [18]	cell viability [19]	cell viability [20]	cell viability [21]	cell viability [22]	cell viability [23]	cell viability [24]	cell viability [25]	cell viability [26]	cell viability [27]	cell viability [28]	cell viability [29]	cell viability [30]	cell viability [31]	cell viability [32]	cell viability [33]
NC(=O)c1cccc(N)c1	92.8%	104%	38.7%	112%	116%	120%	113%	129%	115%	106%	118%	72.3%	106%	10.3%	79.6%	84.5%	97.8%	82.9%	85.5%	80.6%	104%	81.6%	79.9%	115%	27.4%	95.4%	102%	98.2%	105%	94.4%	96.3%	117%	99.4%
OC1=CC=C(C=C1)\C2=C\C(=O)C3=C(O2)C=C(O)C=C3O	106%	111%	115%	112%	113%	108%	108%	94.4%	106%	113%	96.3%												92%	121%	119%	109%	111%	108%	108%	94.9%	93.6%	98%	64.2%
Cc1c(C(=O)Nc2cccc(C(F)(F)F)c2)cc(-c2ccccc2)n1CCCN1CCOCC1	99.2%	112%	106%	105%	111%	96.3%	111%	99.5%	90.3%	93.6%	62.8%	89.6%	106%	119%	116%	110%	101%	122%	101%	115%	93.6%	50.9%	104%	111%	121%	113%	121%	115%	109%	109%	95%	92.6%	45.8%
CC(C)C[C@H](NC(=O)[C@H](Cc1ccccc1)NC(=O)c1cnccn1)B(O)O	82.8%	88.2%	95.9%	46.6%	5.6%	4.11%	3.83%	3.37%	2.58%	1.95%	1.04%	90.9%	102%	113%	38.4%	6.07%	3.74%	3.71%	3.19%	2.6%	1.56%	0.977%	90.4%	84.7%	84.5%	31.1%	6.17%	4.26%	4.12%	3.78%	3.01%	2.1%	1.1%
Cc1ccc(-c2ncn(-c3ccc(Nc4nccc(-c5cccc(N6CCOCC6)c5)n4)cc3)n2)cn1	75.3%	93%	103%	94.5%	70.9%	65.3%	4.95%	3.93%	3.48%	3.55%	6.89%	90.3%	98.9%	101%	104%	75.1%	32.3%	5.46%	4.61%	3.18%	3.66%	5.27%	81.6%	95.5%	90.7%	94.4%	66.9%	48%	5.8%	4.65%	4.48%	3.85%	5.94%
O=c1[nH]cnc2c1ncn2[C@H]1CC[C@@H](CO)O1	85.7%	97%	104%	102%	88.3%	101%	102%	110%	99.8%	90.5%	69.4%	85.1%	86.6%	98%	95.8%	90.8%	86.4%	99.9%	94%	83.4%	60.8%	47.4%	77.6%	86.1%	84.3%	85.2%	77.7%	97.6%	105%	92.7%	99.5%	67.8%	70.3%
C=CCn1c(=O)c2cnc(Nc3ccc(N4CCN(C)CC4)cc3)nc2n1-c1cccc(C(C)(C)O)n1	117%	118%	127%	110%	98.6%	81.4%	61.4%	28.3%	25.7%	24.5%	29.4%												111%	119%	135%	93.5%	90.8%	64.6%	52.7%	26.3%	15.7%	19.3%	21.8%
C[C@@H]1CC[C@@]2(OC1)OC1CC3C4CC=C5CC(O)CCC5(C)C4CCC3(C)C1[C@@H]2C (stereo partly specified)	88.6%	48%	101%	100%	100%	106%	107%	95.1%	102%	91.4%	73.6%	85.9%	40.2%	97.9%	89.7%	93.3%	93.2%	93.6%	90.4%	96.1%	76.3%	26.6%	86.3%	44.1%	93.9%	107%	88.6%	104%	92.4%	84.1%	101%	85.5%	61.5%
CC1(C)CC(O)CC(C)(C)N1[O]	87.2%	80.3%	89.8%	86.9%	81.6%	89.1%	44.7%	94.3%	89.5%	92.1%	84.2%	102%	114%	96.3%	105%	98.6%	96.6%	27.7%	101%	113%	103%	99.5%	98.6%	94.6%	97.8%	97.5%	94.3%	95.4%	32.7%	106%	108%	102%	85.4%
CCCCCCCCc1ccc(CCC(N)(CO)CO)cc1	103%	108%	108%	111%	101%	120%	110%	118%	97.1%	83.2%	2.73%	99.4%	115%	107%	120%	122%	111%	115%	121%	93.7%	107%	2.59%	105%	116%	117%	110%	104%	110%	115%	109%	107%	124%	3.38%
N#CC(=C(/N)Sc1ccccc1N)/C(C#N)=C(\N)Sc1ccccc1N	95.9%	101%	129%	133%	116%	123%	111%	113%	94.1%	100%	83%												116%	120%	139%	151%	113%	118%	111%	98.2%	93.2%	89%	57.3%
Cc1cn(CCN2CCN(c3ccccc3-c3cc(C#N)cc(C(=O)NCCCN4CCCC4)c3)CC2)c2ccccc12	103%	103%	94.9%	97.1%	99.9%	101%	112%	102%	73.2%	23.8%	18.3%												104%	116%	116%	101%	117%	119%	128%	113%	102%	42%	27%
Oc1cc(O)cc(/C=C/c2ccc(O)c(O)c2)c1	86.5%	85.8%	89.6%	80.1%	99.9%	92.7%	93.3%	106%	78.1%	77.9%	44.6%	101%	102%	95%	107%	101%	101%	115%	92.7%	85.3%	67.5%	14.2%	87.9%	92.7%	78.6%	82.6%	87.5%	89.8%	97.6%	84.2%	82.4%	63.4%	27.3%
COc1cc(-c2nn(C3CCC(N4CCN(C(C)=O)CC4)CC3)c3ncnc(N)c23)ccc1NC(=O)c1cc2ccccc2n1C (stereo unspecified)	121%	117%	123%	113%	123%	126%	123%	142%	121%	121%	101%	125%	117%	115%	109%	131%	140%	132%	135%	129%	122%	85.5%	104%	124%	121%	128%	124%	111%	117%	130%	120%	113%	90%
Cc1cc(O)c2c(c1)C(=O)c1cc(O)cc(O)c1C2=O	102%	108%	110%	115%	100%	108%	98.9%	99.4%	106%	99.4%	86.7%	101%	99.3%	101%	101%	120%	128%	111%	102%	112%	120%	86.5%	92.7%	106%	114%	117%	112%	106%	106%	106%	123%	103%	103%
C[N+](C)([O-])CCNc1ccc(NCC[N+](C)(C)[O-])c2c1C(=O)c1c(O)ccc(O)c1C2=O	101%	85.4%	83.8%	84.5%	88.8%	77.1%	69.7%	46.4%	7.02%	20.1%	10.1%	101%	95.8%	105%	89.9%	73.5%	56.6%	55.8%	28.8%	7.28%	12.8%	9.18%	88.9%	86.1%	93.8%	87.7%	79.5%	68.2%	62%	33.5%	8.62%	18.8%	12%
COC1(C[S+]([O-])c2ccccc2)CCN(CCc2c[nH]c3ccc(F)cc23)CC1 (stereo unspecified)	119%	119%	122%	104%	123%	111%	109%	100%	122%	110%	93.5%	120%	109%	117%	106%	119%	113%	116%	111%	117%	110%	95.6%											
